In paper PMC4992173, “Divergent synthesis and identification of the cellular targets of deoxyelephantopins” (Nature Communications, 2016):

Test system: Caco-2 cells
Test: In situ global proteomics profiling of Caco-2 cells (LC-MS/MS, LFQ)
Type: cell-based, human
Settings: for Log2 20 µM DEP/DMSO: LFQ
Experimental: Figure 7 Identification of PPARγ as target of deoxyelephantopin and screening of DEP derivatives as PPARγ antagonists. (a) Quantification of endogenous PPARγ enriched from Caco-2 cells using 10 μM 24c following in situ treatment with DEP (20 μM) or DMSO (normalized LFQ values±s.d. are shown; n=6). (b) Changes in expression levels of five PPARγ-dependent proteins following 24 h treatment of Caco-2 cells with DMSO, rosiglitazone (10 μM), T0070907 (50 μM) or DEP (20 μM; LFQ ratios±s.d. are shown; n=3). **P<0.005 and ***P<0.0005 by two-sided Student's t-test. (c) Gel-based competitive screening of DEP and analogues as PPARγ antagonists against recombinant human enzyme (top). hPPARγ was treated with each compound (20 μM) for 1 h followed by treatment with 24c-Cy3 (10 μM) as probe. Quantification of fluorescence intensity in the competitive screening for PPARγ antagonists (bottom; values±s.d. are shown; n=3).
Caco-2 cells were treated with DMSO, PPARγ agonist rosiglitazone, antagonist T0070907 or DEP for 24 h, the cells were collected and the proteomes were comparatively analysed by LC–MS/MS. […] Furthermore, the list of 43 dysregulated proteins was analysed and classified using the GOrilla pathway analysis tool (Supplementary Fig. 15). […]
In situ global proteomics profiling using LC-MS/MS. Caco- ’ cells/mL) in a 6-well plate, allowed to grow to confluence and to differentiate for 28 days. The wells were washed one time with PBS and treated with either DMSO, 10 µM rosiglitazone, 50 µM T0070907 or 20 µM DEP for 24 hours. Cells were washed two times with PBS and lysates were prepared. Samples (30 µg) were denatured with 6 M urea in 50 mM NH4HCO3, reduced […]
dark. Samples were diluted to 2 M urea with 50 mM NH4HCO3, and digested with trypsin ([…] for 12 hours at 37 °C. Samples were acidified to a final concentration of 5% acetic acid, desalted over a self-packed C18 spin column and […]
dried. […]
LC-MS/MS analysis. Peptides were resuspended in water with 0.1% formic acid (FA) and analyzed using Proxeon EASY-nLC 1000 nano-UHPLC coupled to QExactive Plus Quadrupole-Orbitrap mass spectrometer (Thermo Scientific). The chromatography column […]
H2O (Buffer A) and 0.1% FA in MeCN (Buffer B). Peptides were eluted into the mass spectrometer at a flow rate of 300 nL/min. over a 240 min. linear gradient (3-35% Buffer B) at 50 °C. Data was acquired in data-dependent mode (top- N = ’ […]
and isotope exclusion was enabled.
MaxQuant analysis. The MS data was analyzed with MaxQuant (V1.5.2.8) and searched against the human proteome (Uniprot, 89,649 entries) and a common list of contaminants (included in MaxQuant). The first peptide search tolerance was set to 20 ppm, 10 ppm was used for the main peptide search and fragment mass tolerance was set to 0.02 Da. The false discovery rate for peptides, proteins and sites identification was set to 1%. The minimum peptide length was set to 6 amino acids and peptide re-quantification, label-free quantification (MaxLFQ) and “ ” were enabled. The minimal number of peptides per protein was set to two. Oxidized methionines and N-terminal acetylation were searched as variable modifications and carbamidomethylation of cysteines was searched as a fixed modification. For SILAC experiments 13C6 L-lysine and 13C6 15N4 L-arginine were set as heavy isotope labels and 12C6 L-lysine and 12C6 14N4 L-arginine as light isotope labels.
19 d k g h ARγ. 19a was covalently docked to the crystal structure of human γ ZU 190 using the GOLD suite (V5.3, CCDC). The default GOLD fitness function was used to determine the best binding configuration. The distance for hydrogen bonding was set to 3 Å.
IAA competition of 23c, 24c and DEP h ARγ. γ
(500 ng in 9 µL PBS) was treated with either 100 µM DEP, 23c, 24c or DMSO (1 µL of 10x stock in DMSO) for one hour. Samples were denatured with 6 M urea in 50 mM NH4HCO3, […]
in the dark. Samples were diluted to 2 M urea with 50 mM NH4HCO3, and digested with trypsin […]

## C=C(C)C(=O)O[C@H]1CC2=C[C@@H](C/C(C)=C/[C@H]3OC(=O)C(=C)[C@H]13)OC2=O [deoxyelephantopin]
20 µM, 24 h, compared with rosiglitazone and T0070907
  mode of action on PPARγ in cells: antagonist of PPARγ
Protein ALDH3B1, 24 h
  Log2 20 µM DEP/DMSO: -0.67
Protein ARHGAP17, 24 h
  Log2 20 µM DEP/DMSO: -0.97
Protein ARMCX3, 24 h
  Log2 20 µM DEP/DMSO: -0.92
Protein COL4A3BP, 24 h
  Log2 20 µM DEP/DMSO: -0.76
Protein CROT, 24 h
  Log2 20 µM DEP/DMSO: -0.68
Protein CTBP2, 24 h
  Log2 20 µM DEP/DMSO: 0.72
Protein DDX21, 24 h
  Log2 20 µM DEP/DMSO: 0.82
Protein FNTA, 24 h
  Log2 20 µM DEP/DMSO: -0.62
Protein GID8, 24 h
  Log2 20 µM DEP/DMSO: 0.68
Protein GIPC2, 24 h
  Log2 20 µM DEP/DMSO: -0.69
Protein GIT2, 24 h
  Log2 20 µM DEP/DMSO: -0.92
Protein GSTA1, 24 h
  Log2 20 µM DEP/DMSO: -0.81
Protein GSTA2, 24 h
  Log2 20 µM DEP/DMSO: -0.87
Protein GSTM3, 24 h
  Log2 20 µM DEP/DMSO: -0.84
Protein HIGD1A, 24 h
  Log2 20 µM DEP/DMSO: 0.69
Protein IREB2, 24 h
  Log2 20 µM DEP/DMSO: 0.65
Protein ITGB4, 24 h
  Log2 20 µM DEP/DMSO: 0.92
Protein LDHD, 24 h
  Log2 20 µM DEP/DMSO: -0.60
Protein LDLR, 24 h
  Log2 20 µM DEP/DMSO: 1.72
Protein LIPA, 24 h
  Log2 20 µM DEP/DMSO: -0.68
Protein MARCH5, 24 h
  Log2 20 µM DEP/DMSO: 1.85
Protein MGMT, 24 h
  Log2 20 µM DEP/DMSO: -0.81
Protein MYO15B, 24 h
  Log2 20 µM DEP/DMSO: -1.00
Protein NOP9, 24 h
  Log2 20 µM DEP/DMSO: 1.57
Protein OAS1, 24 h
  Log2 20 µM DEP/DMSO: 1.10
Protein OGDHL, 24 h
  Log2 20 µM DEP/DMSO: -0.98
Protein PANK4, 24 h
  Log2 20 µM DEP/DMSO: -0.81
Protein PHPT1, 24 h
  Log2 20 µM DEP/DMSO: -0.79
Protein PSIP1, 24 h
  Log2 20 µM DEP/DMSO: 0.76
Protein RAB5B, 24 h
  Log2 20 µM DEP/DMSO: 0.79
Protein RBP4, 24 h
  Log2 20 µM DEP/DMSO: -1.03
Protein RRS1, 24 h
  Log2 20 µM DEP/DMSO: 0.65
Protein SAMHD1, 24 h
  Log2 20 µM DEP/DMSO: -0.97
Protein SCAMP3, 24 h
  Log2 20 µM DEP/DMSO: 0.63
Protein SETDB1, 24 h
  Log2 20 µM DEP/DMSO: 0.81
Protein SLC26A3, 24 h
  Log2 20 µM DEP/DMSO: -0.98
Protein SLC39A14, 24 h
  Log2 20 µM DEP/DMSO: -0.74
Protein STK4, 24 h
  Log2 20 µM DEP/DMSO: -0.74
Protein SURF6, 24 h
  Log2 20 µM DEP/DMSO: 1.30
Protein TGOLN2, 24 h
  Log2 20 µM DEP/DMSO: 1.03
Protein TPD52L1, 24 h
  Log2 20 µM DEP/DMSO: -0.71
Protein TTR, 24 h
  Log2 20 µM DEP/DMSO: -0.97
Protein VPS52, 24 h
  Log2 20 µM DEP/DMSO: 0.63
